This is an account of results in paper PMC9145144, “Virtual Screening and Hit Selection of Natural Compounds as Acetylcholinesterase Inhibitors” (Molecules, 2022).

Test [1] is described as follows: ABTS radical scavenging activity. The following applies: for ABTS (%) radical scavenging activity: absorbance at 734 nm after 7 min, triplicate, means ± SD, BHT 1 mM in MeOH, na = not active; for antioxidant activity (in words): ABTS radical scavenging. As for the experimental part:
[…] (ABTS), potassium persulphate, and butylhydroxy toluol (BHT) were purchased from Sigma-Aldrich. For ABTS assay, the procedure followed the method of Grochowski et al. with some modifications. The stock solutions included 7 mM ABTS solution and 2.4 mM potassium persulphate solution. The working solution was then prepared by mixing the two stock solutions in equal quantities and allowing them to react for 14 h at room temperature in the dark. […] A fresh ABTS solution was prepared for each assay. […] of each com-pound (125 μL) was allowed to react with 1850 μL of the ABTS solution, and the absorbance was taken at 734 nm after 7 min. The control contains 125 μL methanol and 1850 μL of the ABTS solution. All determinations were performed in triplicate (n = 3). The results were expressed as % ABTS activity, using the following equation: % ABTS radical scavenging activity = ((Acontrol − Asample)/Acontrol) × 100, where Acontrol is the absorbance of the control, while Asample is the absorbance of the sample. Butylhydroxytoluene (BHT) (1 mM in MeOH) was used as a positive control.

In another test the target is NMDA receptor. The following applies: NMDA receptor antagonists; cited from earlier work.
The next test concerns AChE. The following applies: cited from earlier work.
In the next test the test system is BChE. Conditions: cited from earlier work.
The target of test [2] is acetylcholinesterase from Electrophorus electricus (Electrophorus electricus, UniProt O42275). The test is described as follows: biochemical. The following applies: for IC50: triplicate, means ± SD, na = not active. It is filed as biochemical.
Chain of acetylcholinesterase from Electrophorus electricus (O42275 24-633): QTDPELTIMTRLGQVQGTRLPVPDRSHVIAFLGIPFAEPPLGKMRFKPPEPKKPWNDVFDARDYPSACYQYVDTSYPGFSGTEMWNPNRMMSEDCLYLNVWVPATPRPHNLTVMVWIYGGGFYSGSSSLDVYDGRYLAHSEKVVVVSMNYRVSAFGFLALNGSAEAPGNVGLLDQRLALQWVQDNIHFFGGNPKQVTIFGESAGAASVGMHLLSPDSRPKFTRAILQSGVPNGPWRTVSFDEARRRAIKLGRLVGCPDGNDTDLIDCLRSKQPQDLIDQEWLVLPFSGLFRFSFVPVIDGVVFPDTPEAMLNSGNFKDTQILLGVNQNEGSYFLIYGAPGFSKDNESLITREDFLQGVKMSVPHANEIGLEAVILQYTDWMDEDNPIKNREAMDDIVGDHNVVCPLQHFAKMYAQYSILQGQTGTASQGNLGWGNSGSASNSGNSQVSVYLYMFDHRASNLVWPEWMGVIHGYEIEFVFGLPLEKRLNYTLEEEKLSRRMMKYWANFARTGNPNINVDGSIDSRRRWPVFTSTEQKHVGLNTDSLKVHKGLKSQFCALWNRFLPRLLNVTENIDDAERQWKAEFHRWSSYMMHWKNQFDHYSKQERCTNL
Details of test [3]: method as in doi:10.1016/j.phytol.2015.03.012. Conditions: cited from earlier work.
[4] abbreviates: Ellman's method, read-out: IC50.

≈ marks a conversion by molar mass, not a printed value. Where “and” joins values, the source holds several entries; their conditions need not be identical. Identical values can stand only once. Entries after “also recorded” stand apart in the source; their conditions may differ. Like-named read-outs stand apart in the source and are kept apart here.

On to `Cc1cc(C(C)(C)C)c(O)c(C(C)(C)C)c1` [BHT, butylhydroxytoluene, reference compound], for which the “ABTS (%) radical scavenging activity” value in test [1] was 92.38% and 92.38 ± 0.21%.

One may read the Ki as the equilibrium dissociation constant of an inhibitor or competing ligand from its target. As to Ibogaine, the Ki at NMDA receptor was 1.1 µM.

As for `O=c1cccc2n1C[C@@H]1CNC[C@H]2C1` [Cytisine], the “inhibition of AChE (in words)” value in the test on AChE is reported as “does not inhibit”. Moreover, in the test on BChE, the “inhibition of BChE (in words)” value is “does not inhibit”.

With `CC[C@H]1C[C@@H]2CN3CCc4c([nH]c5ccccc45)[C@](C(=O)OC)(C2)[C@H]13` [coronaridine], on NMDA receptor, the Ki was 6.2 µM.

A word on the IC50: it is the concentration that inhibits the measured activity by half. With `O=C1C2CCCN2C(=O)c2ccccc2N1CCc1ccccc1` (centres unmarked) [Compound 17], the IC50 in test [2] (setting [4]) is over 10 mM.

In the case of `Cc1ccc(NC(=O)C[C@H]2NCCc3c([nH]c4ccccc34)C2=O)cc1` [Compound 21, N-(4-methylphenyl)-2-{5-oxo-1H,2H,3H,4H,5H,6H-azepino [4,5-b]indol-4-yl} acetamide], in test [2] (Ellman's method), the “AChE inhibitory activity (in words)” value was “micro- to low millimolar range”. Moreover, the IC50 in test [2] (setting [4]) is 1 to 2 mM and 1.2 mM. For the same molecule, the “ABTS (%) radical scavenging activity” value in test [1] was 34.68% and 34.68 ± 1.27%.

For the molecule `O=C(Cn1ccc2ccc(F)cc21)NC[C@@H]1CCCN2CCCC[C@H]12` [Compound 9, N-{[(1S,9aR)-octahydro-1H-quinolizin-1-yl]methyl}-2-(6-fluoro-1H-indol-1-yl)acetamide], the “AChE inhibitory activity (in words)” value in test [2] (Ellman's method) is recorded as “micro- to low millimolar range”. Also, in test [2] (setting [4]), the IC50 was 1 to 2 mM and 1.8 mM. Besides, in test [1], the “ABTS (%) radical scavenging activity” value was 6.43% and 6.43 ± 0.85%.

For the molecule `CC(=O)Nc1ccc(N[C@@H]2OC(=O)c3c2c2ccccc2n3C)cc1` [Compound 16, (R)-N-(4-((4-methyl-3-oxo-3,4-dihydro-1H-furo [3,4-b]indol-1-yl)amino)phenyl)acetamide], in test [2] (Ellman's method), the “AChE inhibitory activity (in words)” value is reported as “no AChE activity”. In test [1], the “antioxidant activity (in words)” value is “higher than that of the positive control”; the “ABTS (%) radical scavenging activity” value was 95.82% and 95.82 ± 0.21%.

For the molecule `CC1CCc2c([nH]c3ccccc23)C2(N1)C(=O)Nc1ccccc12` (centres unmarked) [Compound 28, 3-methyl-1′,2′,3,4,5,10-hexahydro-2H-spiro[azepino [3,4-b]indole-1,3′-indol]-2′-one], the “AChE inhibitory activity (in words)” value in test [2] (Ellman's method) is “micromolar range; also recorded: micro- to low millimolar range”. The IC50 in test [2] (setting [4]) came to 0.62 ± 0.14 mM. In test [1], the “antioxidant activity (in words)” value is given as “high antioxidant activity”; the “ABTS (%) radical scavenging activity” value is 80.94% and 70.55 ± 0.85%.

As to `O=C1O[C@H]([C@@H](O)CO)C(O)=C1O` [ascorbic acid], the “IC50 scavenging activity in the ABTS model” value in test [3] is given as 105.90 µg/mL (≈ 601 µM).

On to `C=CCN1C(=O)C2(NCCc3c2[nH]c2ccc(C)cc32)c2ccccc21` (centres unmarked) [Compound 29, 6′-methyl-1-(prop-2-en-1-yl)-1,2,2′,3′,4′,9′-hexahydrospiro[indole-3,1′-pyrido [3,4-b]indol]-2-one], for which, in test [2] (Ellman's method), the “AChE inhibitory activity (in words)” value is “micro- to low millimolar range”. Moreover, in test [2] (setting [4]), the IC50 is > 5 mM and 5.7 mM. Moreover, in test [1], the “antioxidant activity (in words)” value is reported as “high antioxidant activity”; the “ABTS (%) radical scavenging activity” value was 70.55% and 80.94% and 80.94 ± 0.94%.

Take `O=C(/C=C/c1ccccc1)N1C[C@@H]2C[C@H](C1)c1cccc(=O)n1C2` [Compound 22, (1S,9R)-11-[(2E)-3-phenylprop-2-enoyl]-7,11-diazatricyc lotrideca-2,4-dien-6-one]: in test [2] (Ellman's method), the “AChE inhibitory activity (in words)” value is “micromolar range; also recorded: micro- to low millimolar range”. Further, 0.39 ± 0.16 mM corresponded to half-maximal inhibition in test [2] (IC50, Ellman's method) (IC50).
